Experimental data taken from US20090170940A1 (priority 2007, published 2009).
Structures can show the parent of a compound that is named as a salt.

Key:
[1] = system: nematode eggs
[2] = system: humans; conditions: cited from earlier work

Row | SMILES | % Eclosion [1] | amount that can be fatal [2]
1 | CNC(=O)Oc1cccc2c1OC(C)(C)C2 [Furadan, 2,3-dihydro-2,2-dimethyl-7-benzofuranyl methylcarbamate] | 0.05% | 1 mL
2 | CCOC=O [ethyl formate] | 0.05% | –
